# Source: patent publication US5053070A, “Pyrimidine derivatives, preparation processes thereof, herbicide containing the same, and herbicidal compositions containing the same along with other active ingredient” (Mitsui Toatsu Chemicals, Incorporated, priority 1988, dated 1991)
# Key:
# [1] = test system: ALS (acetolactate syntase); experiment: ALS enzyme assay (Test 1); format: biochemical, pea; details: 1,000 ppm (0.5 mg/0.5 ml)
# Description: (§1) To determine the selectivity in enzyme level between crops and weeds, and ALS enzyme assay was conducted using pea as a representative of broadleaf crops and barnyardgrass as a representative of narrowleaf weeds.
# (§2) After seeds of pea and barnyardgrass were allowed to germinate at 25° C. for 8-14 days in a dark place, partially-purified suspensions (Suspensions A) of acetolactate syntase were separately obtained from seedlings in accordance with the method described in the literature, Plant Physiology, 75, 827-831.
# (§3) In a test tube, 0.5 mg of one of test compounds was weighed, followed by the addition of 0.15 ml of a 20 mM K2 HPO4 solution and 0.25 ml of a reaction substrate medium which consisted of 40 mM of K2 HPO4, 40 mM of sodium pyruvate, 1 mM of TPP, 1 mM of MgCl2 and 20 μM of FAD so that 0.4 ml of a reaction solution (Solution B) was prepared. Added to 0.4 ml of Solution B was 0.1 ml of suspension A. After the resultant mixture was shaken for 1 hour in a thermostat water bath controlled at 30° C., 50 μl of 6N sulfuric acid were added to terminate the reaction.
# (§4) Next, the reaction-terminated liquid mixture was transferred into a thermostat water bath controlled at 60° C. and was heated for 15 minutes. Thereafter, 0.5 ml of a 0.5% creatine solution and 0.5 ml of a 5% alkaline α-naphthol solution were added, and the resultant mixture was maintained at 60° C. for 15 minutes. As a result, the test solution developed a pink-red color. After the above operation, the absorbance of the test solution at 525 nm was measured by a spectrophotometer (Absorbance 1 of Test Compound).
# (§5) On the other hand, the absorbance (Absorbance 2 of Blank) of a solution obtained by subjecting a portion of Solution B, said portion being free of the test compound, to the above operation and the absorbance (Absorbance 3 of sulfuric acid terminated) of another solution obtained by subjecting another portion of Solution B, said portion containing 50 μl of 6N sulfuric acid as a test compound, were measured at the same time. Based on the values of the respective measurements, the enzyme assay at 1,000 ppm (0.5 mg/0.5 ml) of each compound was determined. [formula]
# [2] = test system: ALS (acetolactate syntase); experiment: ALS enzyme assay (Test 1); format: biochemical, barnyardgrass; details: 1,000 ppm (0.5 mg/0.5 ml)
# Description: as §1, §2, §3, §4, §5
# [3] = test system: soybean; experiment: Upland soil application test (Test 2), crop injury; format: in vivo; details: 30 g ai/a, soil spray before emergence, 30 days later
# Description: (§6) Resin-made 1/2500-are pots were filled with the soil of an upland field. After they were fertilized, soybean, peanut and cotton were seeded and 2-3 cm soil covering was applied. Seeds of redroot pigweed, common lambsquarters, barnyardgrass, green foxtail, large crabgrass, foxtail meadow and johnsongrass had been uniformly mixed with the soil. They were allowed to germinate in a green house. One day later (before emergence of weeds), a wettable powder prepared from a predetermined amount of each test compound in a similar manner to the method described in Formulation Example 1 was diluted with water and then sprayed evenly at an application rate equal to 10 l per are onto the surface of the soil by means of a pressure-operated ULV (ultra low volume) sprayer. Influence to the crops and weeds were observed 30 days later. The results are shown in Table 3, in which the degree of damages of each test plant and the degree of injury to each crop were determined by comparing the air-dried weights of the test plant and crop with those of the corresponding plant and crop in untreated pots and are shown in accordance with the following standard: […]
# [4] = test system: cotton; experiment: Upland soil application test (Test 2), crop injury; format: in vivo; details: 30 g ai/a, soil spray before emergence, 30 days later
# Description: as §6
# [5] = test system: peanut; experiment: Upland soil application test (Test 2), crop injury; format: in vivo; details: 30 g ai/a, soil spray before emergence, 30 days later
# Description: as §6
# [6] = test system: common lambsquarters; experiment: Upland soil application test (Test 2); format: in vivo; details: 30 g ai/a, soil spray before emergence, 30 days later
# Description: as §6
# [7] = test system: barnyardgrass; experiment: Upland soil application test (Test 2); format: in vivo; details: 30 g ai/a, soil spray before emergence, 30 days later
# Description: as §6
# [8] = test system: foxtail meadow; experiment: Upland soil application test (Test 2); format: in vivo; details: 30 g ai/a, soil spray before emergence, 30 days later
# Description: as §6
# [9] = test system: johnsongrass; experiment: Upland soil application test (Test 2); format: in vivo; details: 30 g ai/a, soil spray before emergence, 30 days later
# Description: as §6
# [10] = test system: green foxtail; experiment: Upland soil application test (Test 2); format: in vivo; details: 30 g ai/a, soil spray before emergence, 30 days later
# Description: as §6
# [11] = test system: redroot pigweed; experiment: Upland soil application test (Test 2); format: in vivo; details: 30 g ai/a, soil spray before emergence, 30 days later
# Description: as §6
# [12] = test system: large crabgrass; experiment: Upland soil application test (Test 2); format: in vivo; details: 30 g ai/a, soil spray before emergence, 30 days later
# Description: as §6
smiles,measurement,setting,value
COc1cc(OC)nc(Oc2ccccc2C=NOCC=C(C)Cl)n1 [compound 12],Inhibitory activity (%) Pea,[1],0%
same,Inhibitory activity (%) Barnyardgrass,[2],39%
same,Injury Soybean,[3],0 (91-100 (No damages))
same,Injury Cotton,[4],0 (91-100 (No damages))
same,Injury Peanut,[5],0 (91-100 (No damages))
same,Herbicidal effects Common lambsquarters,[6],3 (11-40 (Medium damages))
same,Herbicidal effects Barnyardgrass,[7],4 (6-10 (Severe damages))
same,Herbicidal effects Foxtail meadow,[8],4 (6-10 (Severe damages))
same,Herbicidal effects Johnsongrass,[9],4 (6-10 (Severe damages))
same,Herbicidal effects Green foxtail,[10],4 (6-10 (Severe damages))
same,Herbicidal effects Redroot pigweed,[11],3 (11-40 (Medium damages))
same,Herbicidal effects Large crabgrass,[12],4 (6-10 (Severe damages))
COc1cc(OC)nc(Oc2ccccc2C=NOCc2ccccc2Cl)n1 [compound 16],Inhibitory activity (%) Pea,[1],0%
same,Inhibitory activity (%) Barnyardgrass,[2],15%
same,Injury Soybean,[3],0 (91-100 (No damages))
same,Injury Cotton,[4],0 (91-100 (No damages))
same,Injury Peanut,[5],0 (91-100 (No damages))
same,Herbicidal effects Common lambsquarters,[6],3 (11-40 (Medium damages))
same,Herbicidal effects Barnyardgrass,[7],3 (11-40 (Medium damages))
same,Herbicidal effects Foxtail meadow,[8],3 (11-40 (Medium damages))
same,Herbicidal effects Johnsongrass,[9],3 (11-40 (Medium damages))
same,Herbicidal effects Green foxtail,[10],3 (11-40 (Medium damages))
same,Herbicidal effects Redroot pigweed,[11],3 (11-40 (Medium damages))
same,Herbicidal effects Large crabgrass,[12],4 (6-10 (Severe damages))
COc1cc(OC)nc(Oc2ccccc2C=NOCc2ccc(C)cc2)n1 [compound 19],Inhibitory activity (%) Pea,[1],0%
same,Inhibitory activity (%) Barnyardgrass,[2],16%
same,Injury Soybean,[3],0 (91-100 (No damages))
same,Injury Cotton,[4],0 (91-100 (No damages))
same,Injury Peanut,[5],0 (91-100 (No damages))
same,Herbicidal effects Common lambsquarters,[6],4 (6-10 (Severe damages))
same,Herbicidal effects Barnyardgrass,[7],4 (6-10 (Severe damages))
same,Herbicidal effects Foxtail meadow,[8],4 (6-10 (Severe damages))
same,Herbicidal effects Johnsongrass,[9],3 (11-40 (Medium damages))
same,Herbicidal effects Green foxtail,[10],4 (6-10 (Severe damages))
same,Herbicidal effects Redroot pigweed,[11],3 (11-40 (Medium damages))
same,Herbicidal effects Large crabgrass,[12],3 (11-40 (Medium damages))
COc1cc(OC)nc(Oc2ccccc2C=NOC(C)c2ccccc2)n1 (stereo not drawn) [compound 21],Inhibitory activity (%) Pea,[1],0%
same,Inhibitory activity (%) Barnyardgrass,[2],26%
same,Injury Soybean,[3],0 (91-100 (No damages))
same,Injury Cotton,[4],0 (91-100 (No damages))
same,Injury Peanut,[5],0 (91-100 (No damages))
same,Herbicidal effects Common lambsquarters,[6],3 (11-40 (Medium damages))
same,Herbicidal effects Barnyardgrass,[7],3 (11-40 (Medium damages))
same,Herbicidal effects Foxtail meadow,[8],3 (11-40 (Medium damages))
same,Herbicidal effects Johnsongrass,[9],4 (6-10 (Severe damages))
same,Herbicidal effects Green foxtail,[10],4 (6-10 (Severe damages))
same,Herbicidal effects Redroot pigweed,[11],3 (11-40 (Medium damages))
same,Herbicidal effects Large crabgrass,[12],4 (6-10 (Severe damages))
COc1cc(OC)nc(Oc2ccccc2C=NOCc2cccc3ccccc23)n1 [compound 22],Inhibitory activity (%) Pea,[1],0%
same,Inhibitory activity (%) Barnyardgrass,[2],35%
same,Injury Soybean,[3],0 (91-100 (No damages))
same,Injury Cotton,[4],0 (91-100 (No damages))
same,Injury Peanut,[5],0 (91-100 (No damages))
same,Herbicidal effects Common lambsquarters,[6],3 (11-40 (Medium damages))
same,Herbicidal effects Barnyardgrass,[7],3 (11-40 (Medium damages))
same,Herbicidal effects Foxtail meadow,[8],4 (6-10 (Severe damages))
same,Herbicidal effects Johnsongrass,[9],4 (6-10 (Severe damages))
same,Herbicidal effects Green foxtail,[10],4 (6-10 (Severe damages))
same,Herbicidal effects Redroot pigweed,[11],3 (11-40 (Medium damages))
same,Herbicidal effects Large crabgrass,[12],3 (11-40 (Medium damages))
COc1cc(OC)nc(Oc2ccccc2C=NOCCc2ccccc2)n1 [compound 23],Inhibitory activity (%) Pea,[1],0%
same,Inhibitory activity (%) Barnyardgrass,[2],35%
same,Injury Soybean,[3],0 (91-100 (No damages))
same,Injury Cotton,[4],0 (91-100 (No damages))
same,Injury Peanut,[5],0 (91-100 (No damages))
same,Herbicidal effects Common lambsquarters,[6],4 (6-10 (Severe damages))
same,Herbicidal effects Barnyardgrass,[7],3 (11-40 (Medium damages))
same,Herbicidal effects Foxtail meadow,[8],3 (11-40 (Medium damages))
same,Herbicidal effects Johnsongrass,[9],4 (6-10 (Severe damages))
same,Herbicidal effects Green foxtail,[10],3 (11-40 (Medium damages))
same,Herbicidal effects Redroot pigweed,[11],3 (11-40 (Medium damages))
same,Herbicidal effects Large crabgrass,[12],3 (11-40 (Medium damages))
CCCC=CCON=Cc1ccccc1Oc1nc(OC)cc(OC)n1 [compound 25],Inhibitory activity (%) Pea,[1],0%
same,Inhibitory activity (%) Barnyardgrass,[2],39%
same,Injury Soybean,[3],0 (91-100 (No damages))
same,Injury Cotton,[4],0 (91-100 (No damages))
same,Injury Peanut,[5],0 (91-100 (No damages))
same,Herbicidal effects Common lambsquarters,[6],4 (6-10 (Severe damages))
same,Herbicidal effects Barnyardgrass,[7],4 (6-10 (Severe damages))
same,Herbicidal effects Foxtail meadow,[8],5 (0-5 (Death))
same,Herbicidal effects Johnsongrass,[9],5 (0-5 (Death))
same,Herbicidal effects Green foxtail,[10],5 (0-5 (Death))
same,Herbicidal effects Redroot pigweed,[11],4 (6-10 (Severe damages))
same,Herbicidal effects Large crabgrass,[12],5 (0-5 (Death))
COc1cc(OC)nc(Oc2ccccc2C=NOCC=Cc2ccc(F)cc2)n1 [compound 29],Inhibitory activity (%) Pea,[1],11%
same,Inhibitory activity (%) Barnyardgrass,[2],98%
same,Injury Soybean,[3],0 (91-100 (No damages))
same,Injury Cotton,[4],0 (91-100 (No damages))
same,Injury Peanut,[5],0 (91-100 (No damages))
same,Herbicidal effects Common lambsquarters,[6],4 (6-10 (Severe damages))
same,Herbicidal effects Barnyardgrass,[7],5 (0-5 (Death))
same,Herbicidal effects Foxtail meadow,[8],4 (6-10 (Severe damages))
same,Herbicidal effects Johnsongrass,[9],5 (0-5 (Death))
same,Herbicidal effects Green foxtail,[10],4 (6-10 (Severe damages))
same,Herbicidal effects Redroot pigweed,[11],5 (0-5 (Death))
same,Herbicidal effects Large crabgrass,[12],5 (0-5 (Death))
COc1cc(OC)nc(Oc2ccccc2C=NOCC=Cc2ccc(Cl)c(Cl)c2)n1 [compound 31],Inhibitory activity (%) Pea,[1],0%
same,Inhibitory activity (%) Barnyardgrass,[2],90%
same,Injury Soybean,[3],0 (91-100 (No damages))
same,Injury Cotton,[4],0 (91-100 (No damages))
same,Injury Peanut,[5],0 (91-100 (No damages))
same,Herbicidal effects Common lambsquarters,[6],3 (11-40 (Medium damages))
same,Herbicidal effects Barnyardgrass,[7],4 (6-10 (Severe damages))
same,Herbicidal effects Foxtail meadow,[8],4 (6-10 (Severe damages))
same,Herbicidal effects Johnsongrass,[9],5 (0-5 (Death))
same,Herbicidal effects Green foxtail,[10],4 (6-10 (Severe damages))
same,Herbicidal effects Redroot pigweed,[11],3 (11-40 (Medium damages))
same,Herbicidal effects Large crabgrass,[12],4 (6-10 (Severe damages))
COc1cc(OC)nc(Oc2ccccc2C=NOCC=Cc2c(F)cccc2F)n1 [compound 33],Inhibitory activity (%) Pea,[1],0%
same,Inhibitory activity (%) Barnyardgrass,[2],91%
same,Injury Soybean,[3],0 (91-100 (No damages))
same,Injury Cotton,[4],0 (91-100 (No damages))
same,Injury Peanut,[5],0 (91-100 (No damages))
same,Herbicidal effects Common lambsquarters,[6],4 (6-10 (Severe damages))
same,Herbicidal effects Barnyardgrass,[7],5 (0-5 (Death))
same,Herbicidal effects Foxtail meadow,[8],5 (0-5 (Death))
same,Herbicidal effects Johnsongrass,[9],5 (0-5 (Death))
same,Herbicidal effects Green foxtail,[10],5 (0-5 (Death))
same,Herbicidal effects Redroot pigweed,[11],4 (6-10 (Severe damages))
same,Herbicidal effects Large crabgrass,[12],5 (0-5 (Death))
